Test results published in ChEMBL document CHEMBL1201862, “PubChem BioAssay data set” (2004).
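Interpolation was linear, between the two tested concentrations surrounding the appropriate level; five concentrations were tested over 48 hours in 96-well plates. GI50 is the concentration that inhibits growth by half.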 Active and inactive are the calls of the source. Rule as the data show it: active = GI50 up to about 1.1 µM and inactive = higher.

What was measured:
Assay in all cases: NCI anticancer screen, dose series, 48 h
A498 = tested on: A498
COLO 205 = tested on: COLO 205
DMS-114 = tested on: DMS-114
HOP-62 = tested on: HOP-62
HOP-92 = tested on: HOP-92
K562 = tested on: K562
KM12 = tested on: KM12
M14 = tested on: M14
Malme-3M = tested on: Malme-3M
OVCAR-4 = tested on: OVCAR-4
OVCAR-5 = tested on: OVCAR-5
OVCAR-8 = tested on: OVCAR-8
SF-295 = tested on: SF-295
SK-MEL-5 = tested on: SK-MEL-5
SK-OV-3 = tested on: SK-OV-3
SNB-19 = tested on: SNB-19
RXF 393 = tested on: RXF 393

Measured: GI50

COC(=O)C(/C(=N/N)C(=O)Nc1cc(Cl)ccc1Cl)c1nc2ccc([N+](=O)[O-])cc2nc1O (stereo not given)
inactive: A498 58.5 µM | COLO 205 > 100 µM | DMS-114 50.2 µM | HOP-62 > 100 µM | HOP-92 30.7 µM | K562 2.74 µM | KM12 > 100 µM | M14 72.3 µM | Malme-3M > 100 µM | OVCAR-4 > 100 µM | OVCAR-5 > 100 µM | OVCAR-8 > 100 µM | SF-295 > 100 µM | SK-MEL-5 > 100 µM | SK-OV-3 > 100 µM | SNB-19 > 100 µM

O=c1[nH]nc2ccccc2c1Cc1ccccc1
inactive: A498 > 100 µM | COLO 205 > 100 µM | DMS-114 > 100 µM | HOP-62 > 100 µM | HOP-92 > 100 µM | K562 > 100 µM | KM12 > 100 µM | M14 > 100 µM | Malme-3M > 100 µM | OVCAR-4 > 100 µM | OVCAR-5 > 100 µM | OVCAR-8 > 100 µM | SF-295 > 100 µM | SK-MEL-5 > 100 µM | SK-OV-3 > 100 µM | SNB-19 > 100 µM

CC(=O)C1C(=O)N(C(C)C)C[C@@H]2CCC(=O)C[C@H]12 (stereo not given in full)
inactive: A498 > 100 µM | COLO 205 > 100 µM | DMS-114 > 100 µM | HOP-62 > 100 µM | HOP-92 > 100 µM | K562 > 100 µM | KM12 > 100 µM | M14 > 100 µM | Malme-3M > 100 µM | OVCAR-4 > 100 µM | OVCAR-8 > 100 µM | RXF 393 > 100 µM | SF-295 > 100 µM | SK-MEL-5 > 100 µM | SK-OV-3 > 100 µM | SNB-19 > 100 µM

CCN(N=O)C1C2(CCCC2)NC(=O)C12CCCC2 (stereo not given)
inactive: A498 > 100 µM | DMS-114 > 100 µM | HOP-62 > 100 µM | K562 > 100 µM | KM12 > 100 µM | M14 > 100 µM | Malme-3M > 100 µM | OVCAR-4 > 100 µM | OVCAR-5 > 100 µM | OVCAR-8 > 100 µM | RXF 393 > 100 µM | SF-295 > 100 µM | SK-OV-3 > 100 µM | SNB-19 > 100 µM

CCOC(=O)c1nc2ccc(Cl)cc2c2c1CCO2
inactive: A498 31 µM | COLO 205 > 100 µM | DMS-114 64.3 µM | HOP-62 82.4 µM | K562 91.2 µM | KM12 > 100 µM | M14 > 100 µM | Malme-3M > 100 µM | OVCAR-4 70.1 µM | OVCAR-5 > 100 µM | OVCAR-8 > 100 µM | RXF 393 41.5 µM | SF-295 > 100 µM | SK-MEL-5 55.6 µM | SK-OV-3 76 µM | SNB-19 > 100 µM

CC(C)C1CCC/C=C/C=C/C=C/C=C/C(OC2OC(C)C(O)C(N)C2O)CC2OC(O)(CC(O)CC(O)C(O)CCC(=O)O1)CC(O)C2C(=O)O (stereo not given)
inactive: A498 > 52.5 µM | COLO 205 > 52.5 µM | DMS-114 > 52.5 µM | HOP-62 > 52.5 µM | HOP-92 > 52.5 µM | K562 > 52.5 µM | M14 > 52.5 µM | Malme-3M > 52.5 µM | OVCAR-8 > 52.5 µM | SF-295 > 52.5 µM | SK-MEL-5 > 52.5 µM | SK-OV-3 > 52.5 µM | SNB-19 > 52.5 µM

Cc1c2n(c(=O)[nH]c1=O)C1OC(CO)C(O2)C1O (stereo not given)
inactive: A498 23 µM | COLO 205 > 100 µM | DMS-114 > 100 µM | HOP-62 > 100 µM | HOP-92 > 100 µM | K562 > 100 µM | KM12 > 100 µM | OVCAR-4 > 100 µM | OVCAR-8 > 100 µM | RXF 393 > 100 µM | SF-295 > 100 µM | SK-MEL-5 > 100 µM | SK-OV-3 > 100 µM | SNB-19 > 100 µM
